# Like-named read-outs stand apart in the source and are kept apart here.
# Experiments:
# [1] = Plasma elimination of CLF after intravenous injection in healthy volunteers (and patients); assay type: in vivo, human
# Description: A study was carried out in six healthy volunteers (1 female, 5 male), ages 30-53 years. Subjects were studied supine after overnight fasting. After an initial basal blood sample was taken, CLF in a dose of 0.02 mg/kg of body weight (b.w.) in physiological saline was injected intravenously during 15 seconds. Venous blood samples were collected from the opposite antecubital vein into gel and lithium heparin containers (sold under the Trade Name Vacutainers by Becton Dickinson Vacutainer Systems) at 2, 3, 4, 6, 10, 15, 20, 30, 60 and 90 minutes. The blood samples were then centrifuged and 0.5 ml aliquots of plasma were taken and added to 3.5 ml of methanol to precipitate plasma proteins, followed by further centrifugation. The supernatant (1 ml) was diluted to 3 ml with methanol and the fluorescence was then measured by spectrometer (Perkin Elmer LS5B Luminescence Spectrometer).
# CLF concentration (μg/ml) was derived from a calibration curve which expressed the equation: […]
# where y represents the measured fluorescence in fluorescence units at an excitation wavelength of 490 nm with emission at 520 nm and x represents the CLF concentration in μg/ml. The calibration curve was calibrated from fluorescence meaurements of solutions having known CLF concentrations followed by linear regression analysis.
# Non linear plasma elimination curves presented as percentage dose administered per liter of plasma were fitted to a tri-exponential model. The half life (t1/2 time) was calculated for the first (t1/2 1st phase), second (t1/2 2nd phase) and third (t1/2 3rd phase) phases of the elimination curves from the equations: […]
# where k1, k2 and k3 were calculated for each subject using the equation:
# Ct =Ae^-k.sbsp.1^t +Be^-k.sbsp.2^t
# Ct is the concentration of CLF at time t, A, B and C are the intercepts of each phase of elimination at t=0 k1, k2 and k3 are fractional disappearance rates of the three phases of elimination.
# [2] = Standard liver function tests, electrolytes and kidney function before and after 0.5 mg/kg b.w. CLF; assay type: in vivo, human
# Description: In five healthy volunteers, a 25-fold higher dose of CLF (0.5 mg/kg b.w.) was injected in order to further assess the appropriateness of the dose chosen and the safety of the compound. […] Table.
# Tests of Liver Function Before And After CLF Dose of
# 0.5 mg/Kg b.w. For 5 Healthy Patients.
# [3] = Horak et al., cited from earlier work
# [4] = radiolabelled, bi-exponential model, Cowen et al.; cited from earlier work
# [5] = CLF 0.02 mg/kg b.w. i.v., healthy volunteers, plasma, tri-exponential model
# [6] = after CLF 0.5 mg/kg b.w., only one value given
compound,measurement,setting,value
"CC(CCC(=O)NC(CCCCNC(=S)Nc1ccc(-c2c3ccc(=O)cc-3oc3cc(O)ccc23)c(C(=O)O)c1)C(=O)O)C1CCC2C3C(O)CC4CC(O)CCC4(C)C3CC(O)C12C (stereo not shown) [CLF, cholyl-lysyl-fluorescein]",efficiency of hepatic clearance (elimination curves at 25-fold increased dose),"[1]; 0.5 mg/kg b.w. i.v. versus 0.02 mg/kg, healthy volunteers",efficiency of hepatic clearance is unchanged
same,percentage of fluorescence after 60 min (fluorescence at 60 min compared with 10 min),"[1]; 60 min vs 10 min, plasma, healthy volunteers",13.1±1.6%
same,"Plasma retention at 90 minutes, percentage of the dose administered per liter of plasma","[1]; 90 minutes, i.v., healthy volunteers",2.2%
same,t1/2 1st phase of elimination,[1]; [5],1.7 ± 0.9 min
same,t1/2 2nd phase of elimination,[1]; [5],6.7 ± 1.6 min
same,t1/2 3rd phase of elimination,[1]; [5],68 ± 17 min
same,CLF plasma elimination compared with natural bile acids,"[1]; body of data, comparison with natural bile acids",very similar to the elimination of natural bile acids
same,volume of distribution,"[1]; calculated as proposed by Thiordleifsson et al., 0.02 mg/kg",2214 ± 147 mL
same,CLF elimination curves of FIG. 2,"[1]; healthy patients versus patients with fatty, cirrhotic and recently transplanted livers (5 days post operation)",differing rates of CLF elimination
same,"Serum biochemistry including basic liver function tests, electrolytes and kidney function","[2]; 0.5 mg/kg b.w. i.v., five healthy volunteers",did not change significantly
same,plasma alkaline phosphatase levels post injection,"[2]; 0.5 mg/kg b.w. i.v., healthy volunteers, not statistically significant",consistent diminution
same,bilirubin after CLF injection,"[2]; after CLF 0.5 mg/kg b.w., before: 10",11 μM/L
same,AST (aspartate aminotransferase) after CLF injection,"[2]; after CLF 0.5 mg/kg b.w., before: 17",16 U/L
same,Creatinine after CLF injection,"[2]; after CLF 0.5 mg/kg b.w., before: 94",89 μM/L
same,AlkP (alkaline phosphatase) after CLF injection,"[2]; after CLF 0.5 mg/kg b.w., before: 148",134 U/L
same,Albumin after CLF injection,[2]; [6],42 g/L
same,Urea after CLF injection,[2]; [6],4.3 mM/L
C[C@H](CCC(=O)O)[C@H]1CC[C@H]2[C@@H]3[C@H](O)C[C@@H]4C[C@H](O)CC[C@]4(C)[C@H]3C[C@H](O)[C@]12C [cholic acid],60 min plasma retention,[3]; FHF patients who survived,60%
same,60 min plasma retention,"[3]; healthy volunteers, 60 min compared with 10 min",8±1%
same,60 min plasma retention,[3]; patients with fulminant hepatic failure (FHF) who subsequently died,71%
C[C@H](CCC(=O)NCC(=O)O)[C@H]1CC[C@H]2[C@@H]3[C@H](O)C[C@@H]4C[C@H](O)CC[C@]4(C)[C@H]3C[C@H](O)[C@]12C [cholyl glycine],t1/2 first exponential,[4],1.7 ± 0.1 min
same,t1/2 second exponential,[4],7 ± 0.1 min

# — patent US6030841A, “Liver function test” (Norgine Limited, priority 1997, dated 2000)
